The results in this text go back to ChEMBL document CHEMBL4680280, “Modulation of the Innate Immune Response by Targeting Toll-like Receptors: A Perspective on Their Agonists and Antagonists” (J Med Chem, 2020).

Experiment [1] has as its target T1, Toll-like receptor 2 (Homo sapiens, UniProt O60603). The experiment is described as follows: Agonist activity at TLR2 in HEK-Blue hTLR2 cells assessed as NF-kappaB activation preincubated for 24 hrs followed by replacement of medium containing compound and measured after 0.5 to 1 hrs by Quanti-blue SEAP assay.
Another experiment concerns the target Toll-like receptor 4 (Homo sapiens, UniProt O00206). The experiment is described as follows: Modulation of TLR4 in human THP1 cells assessed as reduction in LPS-induced TLR4 expression pretreated for 2 hrs followed by LPS challenge and measured after 18 hrs by flow cytometry. The experiment is classed as cell-based, THP-1. Background: In flow cytometry, cells or beads pass a laser one at a time.

Experiment [2] deals with T1, Toll-like receptor 2. Kind of experiment: Agonist activity at TLR2 (unknown origin).
A further experiment concerns the target Toll-like receptor 5 (Homo sapiens, UniProt O60602). Kind of experiment: Inhibition of Flagellin-BS binding to human TLR5 expressed in HEK293 cells harboring SEAP reporter gene preincubated for 24 hrs followed by compound wash out and subsequent Flagellin-BS addition along with compound and measured after 0.5 hrs by QUANTI-Blue assay. The experiment is classed as cell-based. Background: A reporter such as luciferase makes a cellular process visible.

A word on the EC50: it is the concentration at which the effect is half-maximal. By IC50 is commonly meant the concentration that gives 50% inhibition.

T1 sequence (O60603 whole entry): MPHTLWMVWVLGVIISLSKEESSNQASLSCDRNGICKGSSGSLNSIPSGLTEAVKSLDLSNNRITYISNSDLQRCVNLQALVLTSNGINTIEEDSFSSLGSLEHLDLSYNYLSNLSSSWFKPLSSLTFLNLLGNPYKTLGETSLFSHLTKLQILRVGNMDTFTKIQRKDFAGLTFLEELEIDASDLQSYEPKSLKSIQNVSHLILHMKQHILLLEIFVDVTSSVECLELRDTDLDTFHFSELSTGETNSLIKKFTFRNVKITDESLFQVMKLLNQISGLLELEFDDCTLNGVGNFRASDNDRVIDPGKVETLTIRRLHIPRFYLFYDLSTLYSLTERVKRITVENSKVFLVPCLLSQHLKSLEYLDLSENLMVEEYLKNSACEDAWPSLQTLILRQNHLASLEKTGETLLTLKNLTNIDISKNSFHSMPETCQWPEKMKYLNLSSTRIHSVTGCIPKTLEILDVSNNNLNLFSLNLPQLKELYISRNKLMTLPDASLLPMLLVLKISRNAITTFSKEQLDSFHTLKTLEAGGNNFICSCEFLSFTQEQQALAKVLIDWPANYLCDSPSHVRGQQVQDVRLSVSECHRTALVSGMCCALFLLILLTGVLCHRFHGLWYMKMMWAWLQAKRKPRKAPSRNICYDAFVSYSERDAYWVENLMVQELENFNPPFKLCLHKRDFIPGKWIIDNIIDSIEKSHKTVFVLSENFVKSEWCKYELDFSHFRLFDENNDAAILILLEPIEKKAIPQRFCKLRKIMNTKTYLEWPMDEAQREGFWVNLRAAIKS
Chain of Toll-like receptor 5 (O60602 whole entry): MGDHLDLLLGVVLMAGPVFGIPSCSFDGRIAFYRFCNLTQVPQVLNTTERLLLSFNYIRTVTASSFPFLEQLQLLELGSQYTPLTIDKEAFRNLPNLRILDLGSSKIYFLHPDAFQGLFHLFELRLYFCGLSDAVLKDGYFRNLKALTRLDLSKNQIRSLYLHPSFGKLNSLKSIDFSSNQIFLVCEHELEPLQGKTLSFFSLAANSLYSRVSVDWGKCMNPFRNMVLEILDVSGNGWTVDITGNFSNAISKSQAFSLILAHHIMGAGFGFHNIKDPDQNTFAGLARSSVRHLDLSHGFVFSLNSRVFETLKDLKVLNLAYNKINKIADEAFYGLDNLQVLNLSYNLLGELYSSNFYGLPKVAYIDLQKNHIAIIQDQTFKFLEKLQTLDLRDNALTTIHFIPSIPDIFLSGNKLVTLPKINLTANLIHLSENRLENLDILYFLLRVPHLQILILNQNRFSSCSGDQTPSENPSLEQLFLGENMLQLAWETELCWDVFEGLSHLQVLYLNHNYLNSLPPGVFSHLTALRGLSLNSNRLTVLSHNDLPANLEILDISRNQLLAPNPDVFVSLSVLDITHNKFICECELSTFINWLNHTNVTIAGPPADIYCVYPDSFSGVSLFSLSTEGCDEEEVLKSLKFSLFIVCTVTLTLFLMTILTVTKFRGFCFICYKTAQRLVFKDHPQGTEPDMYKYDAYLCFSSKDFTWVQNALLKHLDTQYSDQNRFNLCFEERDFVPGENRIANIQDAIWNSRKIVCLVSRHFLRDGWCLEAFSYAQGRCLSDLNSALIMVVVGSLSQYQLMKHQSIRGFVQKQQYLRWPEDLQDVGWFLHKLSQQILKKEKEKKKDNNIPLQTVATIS
Chain of Toll-like receptor 4 (O00206 whole entry): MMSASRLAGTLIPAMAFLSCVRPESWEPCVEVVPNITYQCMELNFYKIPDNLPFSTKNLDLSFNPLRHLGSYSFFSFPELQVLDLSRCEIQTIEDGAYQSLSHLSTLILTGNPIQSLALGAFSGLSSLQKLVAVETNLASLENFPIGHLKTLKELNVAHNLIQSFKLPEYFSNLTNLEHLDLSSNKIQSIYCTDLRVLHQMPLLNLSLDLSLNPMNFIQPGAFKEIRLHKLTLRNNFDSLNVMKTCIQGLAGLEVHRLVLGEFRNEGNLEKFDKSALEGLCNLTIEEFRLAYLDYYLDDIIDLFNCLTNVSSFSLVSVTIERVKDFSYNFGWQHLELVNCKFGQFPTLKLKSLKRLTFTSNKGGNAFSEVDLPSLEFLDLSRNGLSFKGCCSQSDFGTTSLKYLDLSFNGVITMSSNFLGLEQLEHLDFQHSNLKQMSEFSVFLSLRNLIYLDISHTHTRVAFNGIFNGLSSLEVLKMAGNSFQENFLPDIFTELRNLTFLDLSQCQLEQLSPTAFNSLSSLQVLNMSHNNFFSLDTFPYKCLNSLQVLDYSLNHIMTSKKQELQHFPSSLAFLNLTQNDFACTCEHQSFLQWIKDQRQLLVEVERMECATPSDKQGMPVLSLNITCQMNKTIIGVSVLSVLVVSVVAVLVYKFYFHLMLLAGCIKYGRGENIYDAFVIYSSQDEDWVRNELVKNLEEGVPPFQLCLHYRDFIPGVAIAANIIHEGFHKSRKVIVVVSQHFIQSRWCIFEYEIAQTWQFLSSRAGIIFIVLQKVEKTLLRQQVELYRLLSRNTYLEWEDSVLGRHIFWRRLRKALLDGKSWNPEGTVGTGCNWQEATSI

On to `CCOC(=O)c1c(NC(=O)N2CCN(C)CC2)sc2c1CCC2`, for which the EC50 at Toll-like receptor 2 [1] came to 550 nM.
Consider `C=C1C(=O)O[C@@H]2[C@H]3O[C@]3(C)CC/C=C(\C)CC[C@@H]12`, for which the IC50 at Toll-like receptor 4 stood at 1400 nM.
As to `CCCCCCCCCCCCCCCC(=O)OC[C@H](CSC[C@H](NC(C)=O)C(=O)N[C@@H](CO)C(=O)N[C@@H](CCCCN)C(=O)N[C@@H](CCCCN)C(=O)N[C@@H](CCCCN)C(=O)N[C@@H](CCCCN)C(=O)N[C@@H](CO)C(=O)N[C@@H](CC(C)C)C(=O)N[C@H](CN[C@@H](CCSC)C(=O)N[C@@H](Cc1c[nH]c2ccccc12)C(=O)N[C@H](C(=O)N[C@H](C(=O)N[C@@H](CCC(N)=O)C(=O)N[C@H](C(=O)O)C(C)C)[C@@H](C)O)[C@@H](C)CC)CC(C)C)OC(=O)CCCCCCCCCCCCCCC`, the 50% effective concentration (EC50) on Toll-like receptor 2 [2] came to 0.28 nM.
As for `CNc1ccc([N+](=O)[O-])cc1-n1cnc(-c2ccc(C(F)(F)F)cc2O)c1`, the 50% effective concentration (EC50) at Toll-like receptor 2 [1] amounted to 4.88 nM.
At Toll-like receptor 2 [2], `CCCCCCCCCCCCCCCC(=O)OCCCC[C@H](CSC[C@H](N)C(=O)N[C@@H](CO)C(=O)N[C@@H](CCCCN)C(=O)N[C@@H](CCCCN)C(=O)N[C@@H](CCCCN)C(=O)N[C@@H](CCCCN)C(=O)N[C@@H](CO)C(=O)N[C@@H](CC(C)C)C(=O)N[C@H](CN[C@@H](CCSC)C(=O)N[C@@H](Cc1c[nH]c2ccccc12)C(=O)N[C@H](C(=O)N[C@H](C(=O)N[C@@H](CCC(N)=O)C(=O)N[C@H](C(=O)O)C(C)C)[C@@H](C)O)[C@@H](C)CC)CC(C)C)OC(=O)CCCCCCCCCCCCCCC` displayed an EC50 of 0.3 nM.
In turn, `CCCCCCCCCCCCCCCC(=O)OC[C@H](CSC[C@H](N)C(=O)N[C@@H](CO)C(=O)N[C@@H](CCCCN)C(=O)N[C@@H](CCCCN)C(=O)N[C@@H](CCCCN)C(=O)N[C@@H](CCCCN)C(=O)N[C@@H](CO)C(=O)N[C@@H](CC(C)C)C(=O)N[C@H](CN[C@@H](CCSC)C(=O)N[C@@H](Cc1c[nH]c2ccccc12)C(=O)N[C@H](C(=O)N[C@H](C(=O)N[C@@H](CCC(N)=O)C(=O)N[C@H](C(=O)O)C(C)C)[C@@H](C)O)[C@@H](C)CC)CC(C)C)OC(=O)CCCCCCCCCCCCCCC` registered an EC50 on Toll-like receptor 2 [2] of 0.47 nM.
On to `CCCCCCCCCCCCCCCC(=O)OCCC[C@H](CSC[C@H](N)C(=O)N[C@@H](CO)C(=O)N[C@@H](CCCCN)C(=O)N[C@@H](CCCCN)C(=O)N[C@@H](CCCCN)C(=O)N[C@@H](CCCCN)C(=O)N[C@@H](CO)C(=O)N[C@@H](CC(C)C)C(=O)N[C@H](CN[C@@H](CCSC)C(=O)N[C@@H](Cc1c[nH]c2ccccc12)C(=O)N[C@H](C(=O)N[C@H](C(=O)N[C@@H](CCC(N)=O)C(=O)N[C@H](C(=O)O)C(C)C)[C@@H](C)O)[C@@H](C)CC)CC(C)C)OC(=O)CCCCCCCCCCCCCCC`, for which the half-maximal effective concentration (EC50) on Toll-like receptor 2 [2] was found to be 0.38 nM.
Turning to `c1ccc(Cn2c(Sc3ncnc4c3sc3ncccc34)nnc2-c2ccncc2)cc1`, the IC50 on Toll-like receptor 5 stood at 850 nM.
